Test results: US20100267561A1, “HERBICIDAL PYRIDAZINONE DERIVATIVES” (priority 2007, published 2010)

Experiments:
Assay type in all cases: in vivo
[1] = tested on: giant foxtail (Setaria faberi); assay: Test A pre-/postemergence plant response
In short: (§1)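 Greenhouse pot test: loam–sand soil; pre- and postemergence sprays applied same day; post plants 2–10 cm, 1–2 leaves. Readout ~10 d, visual % injury vs untreated (0 = none, 100 = complete control).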

[2] = tested on: barnyardgrass (Echinochloa crus-galli); assay: Test A pre-/postemergence plant response
In short: as §1

[3] = tested on: morningglory (Ipomoea coccinea); assay: Test A pre-/postemergence plant response
In short: as §1

[4] = tested on: velvetleaf (Abutilon theophrasti); assay: Test A pre-/postemergence plant response
In short: as §1

corn (Zea mays) = assay: Test A pre-/postemergence plant response
In short: as §1

[5] = tested on: pigweed (Amaranthus retroflexus); assay: Test A pre-/postemergence plant response
In short: as §1

[6] = tested on: wheat (Triticum aestivum); assay: Test A pre-/postemergence plant response
In short: as §1

[7] = tested on: large crabgrass (Digitaria sanguinalis); assay: Test A pre-/postemergence plant response
In short: as §1

[8] = tested on: barnyardgrass (Echinochloa crus-galli); assay: Test B flooded paddy test plant response
In short: (§2)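 Compounds were added directly to paddy water over 2-leaf-stage plants in pots flooded 3 cm above soil, water depth maintained. Visual injury scored against controls after 13 to 15 days in greenhouse, 0 (none) to 100 (complete control); dash indicates no result.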

[9] = tested on: umbrella sedge (Cyperus difformis); assay: Test B flooded paddy test plant response
In short: as §2

[10] = tested on: ducksalad (Heteranthera limosa); assay: Test B flooded paddy test plant response
In short: as §2

rice (Oryza sativa) = assay: Test B flooded paddy test plant response
In short: as §2

[11] = tested on: canarygrass (Phalaris minor); assay: Test B postemergence plant response; conditions: for Canarygrass plant response rating: 8 g ai/ha, postemergence, 0-100 scale; for Plant response rating, Canarygrass: Postemergence
In short: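 Visual injury ratings on a 0–100 scale, where 100 means complete control, were made 13 to 15 days after postemergence treatment of greenhouse-grown plants at the 1- to 4-leaf stage.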

[12] = Postemergence, 31 g ai/ha, 0 to 100 scale, 0 no effect, 100 complete control
[13] = Postemergence, 125 g ai/ha, 0 to 100 scale, 0 no effect, 100 complete control
[14] = Preemergence, 31 g ai/ha, 0 to 100 scale, 0 is no effect, 100 is complete control
[15] = Preemergence, 125 g ai/ha, 0 to 100 scale (0 no effect, 100 complete control)
[16] = Flood (flooded paddy test), 62 g ai/ha, scale 0 to 100, 0 no effect, 100 complete control
[17] = Flood (flooded paddy test), 125 g ai/ha, scale 0 to 100, 0 no effect, 100 complete control
[18] = Flood (flooded paddy test), 250 g ai/ha, scale 0 to 100, 0 no effect, 100 complete control
[19] = Flood, 31 g ai/ha, scale 0 to 100
[20] = 62 g ai/ha, scale 0 to 100, 0 no effect, 100 complete control

Structure (SMILES): Cc1cc(-c2ccc(Cl)cc2)nn1-c1c(OC(=O)c2cccc(Cl)c2)cnn(C)c1=O [Compound 32]
- Plant response rating, Foxtail, Giant [1, 12]: 10
- Plant response rating, Foxtail, Giant [1, 13]: 90
- Plant response rating, Foxtail, Giant [1, 14]: 90
- Plant response rating, Foxtail, Giant [1, 15]: 100
- Plant response rating, Barnyardgrass [2, 12]: 0
- Plant response rating, Barnyardgrass [2, 13]: 70
- Plant response rating, Barnyardgrass [2, 14]: 20
- Plant response rating, Barnyardgrass [2, 15]: 90
- Plant response rating, Morningglory [3, 12]: 0
- Plant response rating, Morningglory [3, 13]: 0
- Plant response rating, Morningglory [3, 14]: 0
- Plant response rating, Morningglory [3, 15]: 0
- Plant response rating, Velvetleaf [4, 12]: 0
- Plant response rating, Velvetleaf [4, 13]: 0
- Plant response rating, Velvetleaf [4, 14]: 0
- Plant response rating, Velvetleaf [4, 15]: 10
- Plant response rating, Corn (corn (Zea mays); [12]): 0
- Plant response rating, Corn (corn (Zea mays); [13]): 50
- Plant response rating, Corn (corn (Zea mays); [14]): 0
- Plant response rating, Corn (corn (Zea mays); [15]): 60
- Plant response rating, Pigweed [5, 12]: 0
- Plant response rating, Pigweed [5, 13]: 10
- Plant response rating, Pigweed [5, 15]: 0
- Plant response rating, Wheat [6, 12]: 0
- Plant response rating, Wheat [6, 13]: 20
- Plant response rating, Wheat [6, 14]: 0
- Plant response rating, Wheat [6, 15]: 60
- Plant response rating, Crabgrass, Large [7, 12]: 10
- Plant response rating, Crabgrass, Large [7, 13]: 70
- Plant response rating, Crabgrass, Large [7, 14]: 90
- Plant response rating, Crabgrass, Large [7, 15]: 90
- Plant response rating, Barnyardgrass [8, 16]: 20
- Plant response rating, Barnyardgrass [8, 17]: 65
- Plant response rating, Barnyardgrass [8, 18]: 70
- Plant response rating, Barnyardgrass [8, 19]: 10
- Plant response rating, Sedge, Umbrella [9, 16]: 30
- Plant response rating, Sedge, Umbrella [9, 17]: 30
- Plant response rating, Sedge, Umbrella [9, 18]: 30
- Plant response rating, Sedge, Umbrella [9, 19]: 20
- Plant response rating, Ducksalad [10, 16]: 30
- Plant response rating, Ducksalad [10, 17]: 40
- Plant response rating, Ducksalad [10, 18]: 40
- Plant response rating, Ducksalad [10, 19]: 30
- Plant response rating, Rice (rice (Oryza sativa); [16]): 0
- Plant response rating, Rice (rice (Oryza sativa); [17]): 30
- Plant response rating, Rice (rice (Oryza sativa); [18]): 65
- Plant response rating, Rice (rice (Oryza sativa); [19]): 0
- Canarygrass plant response rating [11]: 0
- Plant response rating, Canarygrass ([11]; 16 g ai/ha, scale 0 to 100): 10
- Plant response rating, Canarygrass ([11]; 31 g ai/ha, scale 0 to 100, 0 no effect, 100 complete control): 10
- Plant response rating, Canarygrass [11, 20]: 30

Structure (SMILES): Cc1cc(-c2ccc(Cl)cc2)nn1-c1c(OC(=O)Oc2ccccc2)cnn(C)c1=O [Compound 54]
- Plant response rating, Foxtail, Giant [1, 12]: 90
- Plant response rating, Foxtail, Giant [1, 13]: 100
- Plant response rating, Foxtail, Giant [1, 14]: 90
- Plant response rating, Foxtail, Giant [1, 15]: 100
- Plant response rating, Barnyardgrass [2, 12]: 80
- Plant response rating, Barnyardgrass [2, 13]: 100
- Plant response rating, Barnyardgrass [2, 14]: 70
- Plant response rating, Barnyardgrass [2, 15]: 100
- Plant response rating, Morningglory [3, 12]: 0
- Plant response rating, Morningglory [3, 13]: 0
- Plant response rating, Morningglory [3, 14]: 0
- Plant response rating, Morningglory [3, 15]: 20
- Plant response rating, Velvetleaf [4, 12]: 0
- Plant response rating, Velvetleaf [4, 13]: 0
- Plant response rating, Velvetleaf [4, 14]: 0
- Plant response rating, Velvetleaf [4, 15]: 0
- Plant response rating, Corn (corn (Zea mays); [12]): 40
- Plant response rating, Corn (corn (Zea mays); [13]): 90
- Plant response rating, Corn (corn (Zea mays); [14]): 0
- Plant response rating, Corn (corn (Zea mays); [15]): 60
- Plant response rating, Pigweed [5, 12]: 0
- Plant response rating, Pigweed [5, 13]: 0
- Plant response rating, Pigweed [5, 14]: 0
- Plant response rating, Pigweed [5, 15]: 0
- Plant response rating, Wheat [6, 12]: 30
- Plant response rating, Wheat [6, 13]: 60
- Plant response rating, Wheat [6, 14]: 0
- Plant response rating, Wheat [6, 15]: 60
- Plant response rating, Crabgrass, Large [7, 12]: 70
- Plant response rating, Crabgrass, Large [7, 13]: 90
- Plant response rating, Crabgrass, Large [7, 14]: 60
- Plant response rating, Crabgrass, Large [7, 15]: 100
- Plant response rating, Barnyardgrass [8, 16]: 20
- Plant response rating, Barnyardgrass [8, 18]: 80
- Plant response rating, Sedge, Umbrella [9, 16]: 0
- Plant response rating, Sedge, Umbrella [9, 18]: 0
- Plant response rating, Ducksalad [10, 16]: 0
- Plant response rating, Ducksalad [10, 18]: 0
- Plant response rating, Rice (rice (Oryza sativa); [16]): 15
- Plant response rating, Rice (rice (Oryza sativa); [18]): 80
- Canarygrass plant response rating [11]: 0
- Plant response rating, Canarygrass ([11]; 16 g ai/ha, scale 0 to 100): 0
- Plant response rating, Canarygrass ([11]; 31 g ai/ha, scale 0 to 100): 0
- Plant response rating, Canarygrass [11, 20]: 0
